Assay results published in patent US10660877B2 (BRISTOL-MYERS SQUIBB COMPANY, priority 2016, dated 2020).
Like-named read-outs stand apart in the source and are kept apart here.

Assays:
human TLR8 = human TLR8 (Homo sapiens (Human), UniProt Q9NR97); test: TLR8 inhibition reporter assay (HEK-Blue cells, SEAP reporter, R848 stimulation);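 also: compounds tested from 0.05 nM to 50 µM, 22 h at 37 °C, SEAP measured with HEK-Blue Detection, inhibition relative to agonist plus DMSO versus a known inhibitor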
human TLR9 = human TLR9 (Homo sapiens (Human), UniProt Q9NR96); test: TLR9 inhibition reporter assay (HEK-Blue cells, SEAP reporter, ODN2006 stimulation);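 also: compounds tested over 0.05 nM to 50 µM, 22 h incubation, inhibition taken as SEAP signal drop from agonist plus DMSO wells toward a known inhibitor control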
human TLR7 = human TLR7 (Homo sapiens (Human), UniProt Q9NYK1); test: TLR7 inhibition reporter assay (HEK-Blue cells, SEAP reporter, gardiquimod stimulation); assay type: cell-based
[1] = read-out: TLR8 IC50, HEK-Blue cells overexpressing human TLR8, R848 15.9 μM
[2] = read-out: TLR9 IC50, HEK-Blue cells overexpressing human TLR9, ODN2006 5 nM
[3] = HEK-Blue cells overexpressing human TLR7, gardiquimod 7.5 μM
[4] = TLR8 IC50, HEK-Blue cells overexpressing human TLR8, R848 15.9 μM
[5] = TLR9 IC50, HEK-Blue cells overexpressing human TLR9, ODN2006 5 nM

Chain of human TLR7 (Q9NYK1 27-1049): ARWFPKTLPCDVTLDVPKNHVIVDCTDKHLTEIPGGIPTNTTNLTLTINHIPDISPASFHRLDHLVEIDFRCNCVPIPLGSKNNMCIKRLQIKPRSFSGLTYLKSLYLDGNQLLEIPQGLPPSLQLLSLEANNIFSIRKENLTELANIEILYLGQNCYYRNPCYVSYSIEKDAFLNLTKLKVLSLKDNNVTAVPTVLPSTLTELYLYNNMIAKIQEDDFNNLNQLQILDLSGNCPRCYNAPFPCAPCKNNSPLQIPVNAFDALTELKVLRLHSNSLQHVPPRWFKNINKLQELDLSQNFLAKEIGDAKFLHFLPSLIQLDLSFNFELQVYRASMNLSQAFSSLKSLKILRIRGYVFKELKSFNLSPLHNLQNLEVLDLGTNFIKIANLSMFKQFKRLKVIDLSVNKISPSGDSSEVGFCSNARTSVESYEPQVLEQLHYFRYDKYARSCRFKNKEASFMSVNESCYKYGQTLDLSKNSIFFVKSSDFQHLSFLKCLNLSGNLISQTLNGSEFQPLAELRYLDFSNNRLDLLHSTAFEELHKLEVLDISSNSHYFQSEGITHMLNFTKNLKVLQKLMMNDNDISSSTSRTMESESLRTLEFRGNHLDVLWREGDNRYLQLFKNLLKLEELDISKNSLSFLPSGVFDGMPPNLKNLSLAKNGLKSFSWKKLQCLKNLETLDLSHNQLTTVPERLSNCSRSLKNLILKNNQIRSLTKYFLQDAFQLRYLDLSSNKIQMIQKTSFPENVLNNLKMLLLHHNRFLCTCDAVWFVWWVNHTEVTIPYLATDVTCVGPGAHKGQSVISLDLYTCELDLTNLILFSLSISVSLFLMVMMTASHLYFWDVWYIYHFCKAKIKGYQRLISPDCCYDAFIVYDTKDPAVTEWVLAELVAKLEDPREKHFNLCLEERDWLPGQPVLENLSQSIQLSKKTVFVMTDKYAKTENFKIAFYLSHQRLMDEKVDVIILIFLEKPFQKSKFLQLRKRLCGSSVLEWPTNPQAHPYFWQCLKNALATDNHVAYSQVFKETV
Chain of human TLR9 (Q9NR96 26-1032): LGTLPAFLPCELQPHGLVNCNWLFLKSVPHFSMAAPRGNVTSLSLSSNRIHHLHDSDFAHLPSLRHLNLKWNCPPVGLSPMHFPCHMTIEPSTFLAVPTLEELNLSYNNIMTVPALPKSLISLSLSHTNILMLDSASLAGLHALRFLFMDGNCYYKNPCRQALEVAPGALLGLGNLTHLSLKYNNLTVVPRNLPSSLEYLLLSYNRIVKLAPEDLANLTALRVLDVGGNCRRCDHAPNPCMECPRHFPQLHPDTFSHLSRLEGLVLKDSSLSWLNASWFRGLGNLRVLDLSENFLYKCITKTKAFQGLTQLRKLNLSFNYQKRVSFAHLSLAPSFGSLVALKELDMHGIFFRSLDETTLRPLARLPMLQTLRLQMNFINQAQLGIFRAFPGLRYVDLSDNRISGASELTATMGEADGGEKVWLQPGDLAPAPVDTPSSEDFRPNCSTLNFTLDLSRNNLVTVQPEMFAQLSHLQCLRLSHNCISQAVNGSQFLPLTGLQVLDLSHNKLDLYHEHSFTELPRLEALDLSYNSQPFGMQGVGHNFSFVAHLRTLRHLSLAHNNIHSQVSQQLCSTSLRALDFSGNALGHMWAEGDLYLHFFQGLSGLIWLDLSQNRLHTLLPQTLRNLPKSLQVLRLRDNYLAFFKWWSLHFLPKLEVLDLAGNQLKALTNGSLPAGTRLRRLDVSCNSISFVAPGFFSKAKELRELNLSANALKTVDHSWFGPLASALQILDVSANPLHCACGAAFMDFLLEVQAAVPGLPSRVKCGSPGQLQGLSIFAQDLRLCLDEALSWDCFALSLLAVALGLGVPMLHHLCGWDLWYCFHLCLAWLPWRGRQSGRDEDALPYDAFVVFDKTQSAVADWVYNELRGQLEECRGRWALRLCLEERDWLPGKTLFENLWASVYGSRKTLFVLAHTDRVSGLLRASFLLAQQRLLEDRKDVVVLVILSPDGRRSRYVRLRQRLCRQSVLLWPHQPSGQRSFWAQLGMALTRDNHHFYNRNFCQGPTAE
Chain of human TLR8 (Q9NR97 27-1041): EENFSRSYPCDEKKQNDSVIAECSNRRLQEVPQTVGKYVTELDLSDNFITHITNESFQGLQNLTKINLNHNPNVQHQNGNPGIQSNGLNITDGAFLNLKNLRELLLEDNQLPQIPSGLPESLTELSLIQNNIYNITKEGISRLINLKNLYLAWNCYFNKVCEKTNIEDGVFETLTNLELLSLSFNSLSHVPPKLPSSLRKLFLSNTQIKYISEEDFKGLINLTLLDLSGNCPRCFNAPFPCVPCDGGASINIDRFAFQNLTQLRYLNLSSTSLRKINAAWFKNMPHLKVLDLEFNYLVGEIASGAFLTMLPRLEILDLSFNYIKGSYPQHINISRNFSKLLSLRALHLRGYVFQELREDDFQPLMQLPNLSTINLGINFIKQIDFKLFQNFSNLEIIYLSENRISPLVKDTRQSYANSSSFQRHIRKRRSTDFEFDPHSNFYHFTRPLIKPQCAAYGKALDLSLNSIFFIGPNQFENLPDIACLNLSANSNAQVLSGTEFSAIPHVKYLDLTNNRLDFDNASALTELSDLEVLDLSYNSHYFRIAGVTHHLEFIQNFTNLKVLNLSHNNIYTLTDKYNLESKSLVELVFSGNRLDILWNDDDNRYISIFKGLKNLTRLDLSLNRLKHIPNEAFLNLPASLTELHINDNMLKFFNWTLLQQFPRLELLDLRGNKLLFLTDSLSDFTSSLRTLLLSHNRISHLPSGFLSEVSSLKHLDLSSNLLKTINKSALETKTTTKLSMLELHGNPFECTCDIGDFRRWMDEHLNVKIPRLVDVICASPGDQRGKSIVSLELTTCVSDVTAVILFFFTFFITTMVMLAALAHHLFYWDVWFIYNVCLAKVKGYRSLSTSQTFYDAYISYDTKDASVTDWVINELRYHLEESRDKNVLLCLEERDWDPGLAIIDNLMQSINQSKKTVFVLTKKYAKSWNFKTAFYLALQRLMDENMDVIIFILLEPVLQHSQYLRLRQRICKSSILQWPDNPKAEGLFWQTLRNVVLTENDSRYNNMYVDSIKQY

SMILES	IC50 (human TLR8; [1])	IC50 (human TLR9; [2])	IC50 (human TLR7; [3])	IC50 (human TLR8; [4])	IC50 (human TLR9; [5])	IC50 (human TLR8; read-out: TLR8 IC50, HEK-Blue cells, R848 15.9 μM)	IC50 (human TLR9; read-out: TLR9 IC50, HEK-Blue cells, ODN2006 5 nM)	IC50 (human TLR7; HEK-Blue cells, gardiquimod 7.5 μM)
Cc1cc(-c2[nH]c3ccc(C4CCN(C(=O)C5CCN(C(C)C)CC5)CC4)cc3c2C(C)C)ccn1 [Example 563, (4-(3-isopropyl-2-(2-methylpyridin-4-yl)-1H-indol-5-yl)piperidin-1-yl)(1-isopropylpiperidin-4-yl)methanone]	18.9 nM	1150 nM	16.5 nM	–	–	–	–	–
Cc1cc(-c2[nH]c3ccc(C4CCN(CC(N)=O)CC4)cc3c2C(C)C)c(C)cn1 [Example 651, 2-(4-(2-(2,5-dimethylpyridin-4-yl)-3-isopropyl-1H-indol-5-yl)piperidin-1-yl)acetamide]	2.1 nM	3740 nM	5.3 nM	–	–	–	–	–
Cc1cc(-c2[nH]c3ccc(C4CCN(CC(=O)N(C)C5CC5)CC4)cc3c2C(C)C)cc(C)n1 [Example 248, N-cyclopropyl-2-(4-(2-(2,6-dimethylpyridin-4-yl)-3-isopropyl-1H-indol-5-yl)piperidin-1-yl)-N-methylacetamide]	10.2 nM	343 nM	2.3 nM	–	–	–	–	–
Cc1cc(-c2[nH]c3ccc(C4CCN(Cc5ccn(C)n5)CC4)cc3c2C(C)C)c(C)cn1 [Example 689, 2-(2,5-dimethylpyridin-4-yl)-3-isopropyl-5-(1-((1-methyl-1H-pyrazol-3-yl)methyl)piperidin-4-yl)-1H-indole]	0.8 nM	1440 nM	23.2 nM	–	–	–	–	–
Cc1cc(-c2[nH]c3ccc(C4CCN(C(=O)CCN(C)CCO)CC4)cc3c2C(C)C)cc(C)n1 [Example 175, 1-(4-(2-(2,6-dimethylpyridin-4-yl)-3-isopropyl-1H-indol-5-yl)piperidin-1-yl)-3-((2-hydroxyethyl)(methyl)amino)propan-1-one]	7.1 nM	213 nM	1.5 nM	–	–	–	–	–
Cc1cc(-c2[nH]c3ccc(C4CCNCC4)cc3c2C(C)(C)C)ccn1 [Example 86, 3-(tert-butyl)-2-(2-methylpyridin-4-yl)-5-(piperidin-4-yl)-1H-indole]	> 50000 nM	2550 nM	23600 nM	–	–	–	–	–
Cc1cc(-c2[nH]c3ccc(C4CCN(CC(F)(F)F)CC4)cc3c2C(C)C)ccn1 [Example 658, 3-isopropyl-2-(2-methylpyridin-4-yl)-5-(1-(2,2,2-trifluoroethyl)piperidin-4-yl)-1H-indole]	645 nM	7290 nM	434 nM	–	–	–	–	–
Cc1cc(-c2[nH]c3ccc(C4CCN(Cc5nnn[nH]5)CC4)cc3c2C(C)C)c(F)cn1 [Example 696, 5-(1-((1H-tetrazol-5-yl)methyl)piperidin-4-yl)-2-(5-fluoro-2-methylpyridin-4-yl)-3-isopropyl-1H-indole]	104 nM	> 50000 nM	408 nM	–	–	–	–	–
Cc1cc(-c2[nH]c3ccc(C4CCN(CC5CCN(C)CC5)CC4)cc3c2C(C)C)ccn1 [Example 743, 3-isopropyl-5-(1-((1-methylpiperidin-4-yl)methyl)piperidin-4-yl)-2-(2-methylpyridin-4-yl)-1H-indole]	5.1 nM	282 nM	6.5 nM	–	–	–	–	–
Cc1cc(-c2[nH]c3ccc(C4CCN(CC(=O)N(C)CCC5(O)CCCC5)CC4)cc3c2C(C)C)cc(C)n1 [Example 303, 2-(4-(2-(2,6-dimethylpyridin-4-yl)-3-isopropyl-1H-indol-5-yl)piperidin-1-yl)-N-(2-(1-hydroxycyclopentyl)ethyl)-N-methylacetamide]	35.4 nM	402 nM	7.8 nM	–	–	–	–	–
Cc1cc(-c2[nH]c3ccc(C4CCN(C(=O)c5c(C)noc5C)CC4)cc3c2C(C)C)cc(C)n1 [Example 119, (3,5-dimethylisoxazol-4-yl)(4-(2-(2,6-dimethylpyridin-4-yl)-3-isopropyl-1H-indol-5-yl)piperidin-1-yl) methanone]	96.1 nM	5440 nM	6.9 nM	–	–	–	–	–
COCCN1CCN(CC(=O)N2CCC(c3ccc4[nH]c(-c5cc(C)nc(C)c5)c(C(C)C)c4c3)CC2)CC1 [Example 372, 1-(4-(2-(2,6-dimethylpyridin-4-yl)-3-isopropyl-1H-indol-5-yl)piperidin-1-yl)-2-(4-(2-methoxyethyl)piperazin-1-yl)ethan-1-one]	–	–	1.9 nM	14.1 nM	602 nM	–	–	–
CNCCN1CCC(c2ccc3[nH]c(-c4ccnc(C#N)c4)c(C)c3c2)CC1 [Example 755, 4-(3-methyl-5-(1-(2-(methylamino)ethyl)piperidin-4-yl)-1H-indol-2-yl)picolinonitrile]	86.6 nM	599 nM	2650 nM	–	–	–	–	–
CCC(C)NC(=O)CN1CCC(c2ccc3[nH]c(-c4cc(C)nc(C)c4)c(C(C)C)c3c2)CC1 (stereo not drawn) [Example 234, N-(sec-butyl)-2-(4-(2-(2,6-dimethylpyridin-4-yl)-3-isopropyl-1H-indol-5-yl)piperidin-1-yl)acetamide]	24.9 nM	1720 nM	11.4 nM	–	–	–	–	–
Cc1cc(-c2[nH]c3ccc(C4CCN(C(=O)CNC[C@@H](O)CO)CC4)cc3c2C(C)C)ccn1 [Example 511, (R)-2-((2,3-dihydroxypropyl)amino)-1-(4-(3-isopropyl-2-(2-methylpyridin-4-yl)-1H-indol-5-yl)piperidin-1-yl)ethan-1-one]	31.3 nM	1460 nM	32.6 nM	–	–	–	–	–
Cc1cc(-c2[nH]c3ccc(C4CCN(C(=O)c5c(C)nn(C)c5C)CC4)cc3c2C(C)C)cc(C)n1 [Example 131, (4-(2-(2,6-dimethylpyridin-4-yl)-3-isopropyl-1H-indol-5-yl)piperidin-1-yl)(1,3,5-trimethyl-1H-pyrazol-4-yl)methanone]	77.1 nM	17500 nM	12 nM	–	–	–	–	–
CCOCCNC(=O)CN1CCC(c2ccc3[nH]c(-c4cc(C)nc(C)c4)c(C(C)C)c3c2)CC1 [Example 240, 2-(4-(2-(2,6-dimethylpyridin-4-yl)-3-isopropyl-1H-indol-5-yl)piperidin-1-yl)-N-(2-ethoxyethyl)acetamide]	–	–	8.3 nM	7.9 nM	1090 nM	–	–	–
CCc1c(-c2ccnc(C)c2)[nH]c2ccc(C3CCN(C(=O)C4CCNCC4)CC3)cc12 [Example 625, (4-(3-ethyl-2-(2-methylpyridin-4-yl)-1H-indol-5-yl)piperidin-1-yl)(piperidin-4-yl)methanone]	83.5 nM	177 nM	84.5 nM	–	–	–	–	–
Cc1cc(-c2[nH]c3ccc(C4CCN(C(=O)CN5C(C)CCC5C)CC4)cc3c2C(C)C)cc(C)n1 (stereo not drawn) [Example 368, 1-(4-(2-(2,6-dimethylpyridin-4-yl)-3-isopropyl-1H-indol-5-yl)piperidin-1-yl)-2-(2,5-dimethylpyrrolidin-1-yl)ethan-1-one]	21 nM	742 nM	4.5 nM	–	–	–	–	–
CC(C)c1c(-c2ccnc(N(C)C)c2)[nH]c2ccc(C3CCNCC3)cc12 [Example 24, 4-(3-isopropyl-5-(piperidin-4-yl)-1H-indol-2-yl)-N,N-dimethylpyridin-2-amine]	704 nM	1690 nM	1480 nM	–	–	–	–	–
Cc1cc(-c2[nH]c3ccc(C4CCN(CC(=O)N5CC6(COC6)C5)CC4)cc3c2C(C)C)cc(C)n1 [Example 256, 2-(4-(2-(2,6-dimethylpyridin-4-yl)-3-isopropyl-1H-indol-5-yl)piperidin-1-yl)-1-(2-oxa-6-azaspiro[3.3]heptan-6-yl)ethan-1-one]	9.2 nM	403 nM	4.4 nM	–	–	–	–	–
CC(=O)N1CCC(c2ccc3[nH]c(-c4cc(C)ncc4C)c(C(C)C)c3c2)CC1 [Example 584, 1-(4-(2-(2,5-dimethylpyridin-4-yl)-3-isopropyl-1H-indol-5-yl)piperidin-1-yl)ethan-1-one]	45.9 nM	> 50000 nM	43 nM	–	–	–	–	–
CCc1c(-c2ccncc2)[nH]c2ccc(C3CCN(C4CC(C)(C)NC(C)(C)C4)CC3)cc12 [Example 807, 3-ethyl-2-(pyridin-4-yl)-5-(2′,2′,6′,6′-tetramethyl-[1,4′-bipiperidin]-4-yl)-1H-indole]	8.6 nM	117 nM	226 nM	–	–	–	–	–
Cc1cc(-c2[nH]c3ccc(C4CCN(CC(=O)N[C@H](CO)CC(C)C)CC4)cc3c2C(C)C)cc(C)n1 [Example 276, (S)-2-(4-(2-(2,6-dimethylpyridin-4-yl)-3-isopropyl-1H-indol-5-yl)piperidin-1-yl)-N-(1-hydroxy-4-methylpentan-2-yl)acetamide]	18.6 nM	853 nM	6.3 nM	–	–	–	–	–
CCc1c(-c2ccnc(C)c2)[nH]c2ccc(C3CCN(C(=O)[C@H]4CC(F)(F)CN4)CC3)cc12 [Example 623, (R)-(4,4-difluoropyrrolidin-2-yl)(4-(3-ethyl-2-(2-methylpyridin-4-yl)-1H-indol-5-yl)piperidin-1-yl)methanone]	226 nM	14500 nM	201 nM	–	–	–	–	–
Cc1cc(-c2[nH]c3cc(F)c(C4CCN(Cc5ncn(C)n5)CC4)cc3c2C(C)C)cc(C)n1 [Example 832, 2-(2,6-dimethylpyridin-4-yl)-6-fluoro-3-isopropyl-5-(1-((1-methyl-1H-1,2,4-triazol-3-yl)methyl)piperidin-4-yl)-1H-indole]	–	–	–	–	–	25.4 nM	3080 nM	6.2 nM
COc1cc(-c2[nH]c3ccc(C4CCN(Cc5c[nH]c(C)n5)CC4)cc3c2C(C)C)ccn1 [Example 520, 3-isopropyl-2-(2-methoxypyridin-4-yl)-5-(1-((2-methyl-1H-imidazol-4-yl)methyl)piperidin-4-yl)-1H-indole]	27.1 nM	437 nM	42.7 nM	–	–	–	–	–
